Source: PubChem BioAssay AID1963959 (Molecular Pharmacology Branch, DTP, NCI, 2024)

System: T-47D spheroids with HUVEC/MSC, viability
Experiment: Anticancer human tumor T-47D cell line growth inhibition [PI3K];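 also: spheroids exposed to agents for seven days before reading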;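 as to viability, T/C: percent of DMSO vehicle control luminescence so 100% = untreated growth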
Details: for IC50: curve of first compound; for viability, T/C: stronger effect = lower value
Outline: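 Targeted small molecules plus PI3K inhibitors, half-log dose series from Cmax (default top 10 microM), were applied to heterotypic spheroids of cancer cells with HUVEC and MSCs. Viability indicated growth inhibition.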

Structure (SMILES): Cn1cnc2c(F)c(Nc3ccc(Br)cc3Cl)c(C(=O)NOCCO)cc21 + Cc1nc(NC(=O)N2CCCC2C(N)=O)sc1-c1ccnc(C(C)(C)C(F)(F)F)c1
- IC50 (second compound 0.0316 µM): > 3 µM
- IC50 (second compound 0.1 µM): > 3 µM
- IC50 (second compound 0.316 µM): > 3 µM
- IC50 (second compound 1 µM): > 3 µM
- IC50 (second compound 3.16 µM): > 3 µM
- IC50 (second compound 10 µM): < 0.00949 µM
- viability, T/C (second compound 0.0316 µM, first compound 0.00949 µM): 118%
- viability, T/C (second compound 0.0316 µM, first compound 0.03 µM): 93.1%
- viability, T/C (second compound 0.0316 µM, first compound 0.0949 µM): 92.6%
- viability, T/C (second compound 0.0316 µM, first compound 0.3 µM): 85.5%
- viability, T/C (second compound 0.0316 µM, first compound 0.949 µM): 93.1%
- viability, T/C (second compound 0.0316 µM, first compound 3 µM): 105%
- viability, T/C (second compound 0.1 µM, first compound 0.00949 µM): 94.9%
- viability, T/C (second compound 0.1 µM, first compound 0.03 µM): 96.7%
- viability, T/C (second compound 0.1 µM, first compound 0.0949 µM): 85.7%
- viability, T/C (second compound 0.1 µM, first compound 0.3 µM): 96.1%
- viability, T/C (second compound 0.1 µM, first compound 0.949 µM): 84.9%
- viability, T/C (second compound 0.1 µM, first compound 3 µM): 92.3%
- viability, T/C (second compound 0.316 µM, first compound 0.00949 µM): 97.4%
- viability, T/C (second compound 0.316 µM, first compound 0.03 µM): 102%
- viability, T/C (second compound 0.316 µM, first compound 0.0949 µM): 92.6%
- viability, T/C (second compound 0.316 µM, first compound 0.3 µM): 91.2%
- viability, T/C (second compound 0.316 µM, first compound 0.949 µM): 95.5%
- viability, T/C (second compound 0.316 µM, first compound 3 µM): 92.3%
- viability, T/C (second compound 1 µM, first compound 0.00949 µM): 88.2%
- viability, T/C (second compound 1 µM, first compound 0.03 µM): 81.3%
- viability, T/C (second compound 1 µM, first compound 0.0949 µM): 96.2%
- viability, T/C (second compound 1 µM, first compound 0.3 µM): 93.4%
- viability, T/C (second compound 1 µM, first compound 0.949 µM): 85.8%
- viability, T/C (second compound 1 µM, first compound 3 µM): 96%
- viability, T/C (second compound 3.16 µM, first compound 0.00949 µM): 77%
- viability, T/C (second compound 3.16 µM, first compound 0.03 µM): 67.8%
- viability, T/C (second compound 3.16 µM, first compound 0.0949 µM): 65.4%
- viability, T/C (second compound 3.16 µM, first compound 0.3 µM): 65.5%
- viability, T/C (second compound 3.16 µM, first compound 0.949 µM): 66.8%
- viability, T/C (second compound 3.16 µM, first compound 3 µM): 72.2%
- viability, T/C (second compound 10 µM, first compound 0.00949 µM): 36.7%
- viability, T/C (second compound 10 µM, first compound 0.03 µM): 38.9%
- viability, T/C (second compound 10 µM, first compound 0.0949 µM): 41.8%
- viability, T/C (second compound 10 µM, first compound 0.3 µM): 37.7%
- viability, T/C (second compound 10 µM, first compound 0.949 µM): 39.6%
- viability, T/C (second compound 10 µM, first compound 3 µM): 36.6%

Structure (SMILES): Cn1ncc(Cl)c1-c1cc(C(=O)NC(CN)Cc2cccc(F)c2)sc1Cl (centres undefined) + CC(Nc1ncnc2nc[nH]c12)c1cc2cccc(Cl)c2c(=O)n1-c1ccccc1
- IC50 (second compound 0.0316 µM): > 10 µM
- IC50 (second compound 0.1 µM): > 10 µM
- IC50 (second compound 0.316 µM): > 10 µM
- IC50 (second compound 1 µM): > 10 µM
- IC50 (second compound 3.16 µM): > 10 µM
- IC50 (second compound 10 µM): > 10 µM
- viability, T/C (second compound 0.0316 µM, first compound 0.0316 µM): 101%
- viability, T/C (second compound 0.0316 µM, first compound 0.1 µM): 101%
- viability, T/C (second compound 0.0316 µM, first compound 0.316 µM): 84.2%
- viability, T/C (second compound 0.0316 µM, first compound 1 µM): 76.6%
- viability, T/C (second compound 0.0316 µM, first compound 3.16 µM): 64.2%
- viability, T/C (second compound 0.0316 µM, first compound 10 µM): 66.6%
- viability, T/C (second compound 0.1 µM, first compound 0.0316 µM): 100%
- viability, T/C (second compound 0.1 µM, first compound 0.1 µM): 79.2%
- viability, T/C (second compound 0.1 µM, first compound 0.316 µM): 80.2%
- viability, T/C (second compound 0.1 µM, first compound 1 µM): 76.9%
- viability, T/C (second compound 0.1 µM, first compound 3.16 µM): 70.8%
- viability, T/C (second compound 0.1 µM, first compound 10 µM): 66.6%
- viability, T/C (second compound 0.316 µM, first compound 0.0316 µM): 104%
- viability, T/C (second compound 0.316 µM, first compound 0.1 µM): 89.1%
- viability, T/C (second compound 0.316 µM, first compound 0.316 µM): 91.5%
- viability, T/C (second compound 0.316 µM, first compound 1 µM): 68.1%
- viability, T/C (second compound 0.316 µM, first compound 3.16 µM): 72.4%
- viability, T/C (second compound 0.316 µM, first compound 10 µM): 68.3%
- viability, T/C (second compound 1 µM, first compound 0.0316 µM): 103%
- viability, T/C (second compound 1 µM, first compound 0.1 µM): 94.7%
- viability, T/C (second compound 1 µM, first compound 0.316 µM): 81.2%
- viability, T/C (second compound 1 µM, first compound 1 µM): 67.1%
- viability, T/C (second compound 1 µM, first compound 3.16 µM): 58.7%
- viability, T/C (second compound 1 µM, first compound 10 µM): 74.1%
- viability, T/C (second compound 3.16 µM, first compound 0.0316 µM): 82.9%
- viability, T/C (second compound 3.16 µM, first compound 0.1 µM): 99.3%
- viability, T/C (second compound 3.16 µM, first compound 0.316 µM): 79.9%
- viability, T/C (second compound 3.16 µM, first compound 1 µM): 57.6%
- viability, T/C (second compound 3.16 µM, first compound 3.16 µM): 72.8%
- viability, T/C (second compound 3.16 µM, first compound 10 µM): 69.1%
- viability, T/C (second compound 10 µM, first compound 0.0316 µM): 97.8%
- viability, T/C (second compound 10 µM, first compound 0.1 µM): 92.2%
- viability, T/C (second compound 10 µM, first compound 0.316 µM): 77.5%
- viability, T/C (second compound 10 µM, first compound 1 µM): 68.4%
- viability, T/C (second compound 10 µM, first compound 3.16 µM): 66.9%
- viability, T/C (second compound 10 µM, first compound 10 µM): 71.4%
